Experimental data: patent US20220160812A1, “A PHARMACEUTICALLY ACTIVE SUBSTANCE” (Cytopharma GmbH, priority 2019, published 2022)

Legend:
[1] = test system: BxPC-3 human pancreatic cancer cells; test: subG1 cell cycle FACS apoptosis assay, BxPC-3 cells; format: cell-based; conditions: BxPC-3, Protocol A, about 24 hours, FIG. 10
Method: (§1) To transfer adherent cells (A375 and BxPC-3 cells) after culture, cells are washed twice with PBS. To detach the cells, the enzyme biotase is used according to the manufacturer's instructions. For this purpose, after washing with PBS, the cells are mixed with biotase (5 ml of biotase solution per 75 cm^2 surface of the cell culture bottles) and incubated for 5 min at 37 degrees Celsius, and the biotase is separated by centrifugation. Cells cultivated in suspension (MEC-1 and lymphocytes) were transferred by dilution. The cells are suspended in culture medium and counted, each time 1.5×10^5 cells/cm^2 are seeded in 48-well plates and cultured for between 1.5 and 24 hours at 37 degrees Celsius, 5% CO2. Peptides are pre-diluted from stock solution with culture medium and 200 μl of peptide solution added so that final concentrations of 30 to 500 μM peptide are present in at most 1% (v/v) DMSO. As control solutions, culture medium without peptide (DMSO-containing) in culture medium or etoposide solution is added. After incubating the cells for several hours, the cell supernatant is transferred to a FACS tube for each batch and, after washing the cells with PBS, the wash solution is added. Then the cells are incubated with 200 μl of biotase solution for 10 min, 37° C., the cells with the biotase are also transferred to the FACS tube and the cells are collected by centrifugation for 5 min. The cell pellet is suspended in 500 μl of serum-free culture medium, then 1.5 ml of cold 80% ethanol (ethanol/PBS-80/20, v/v, stored at −20° C.) is added, the FACS tubes sealed and stored at −20 degrees Celsius for 15 to 18 h. Thereafter, the cells are centrifuged for 5 minutes at 120 g, suspended after removal of the supernatant in 2 ml PBS and incubated at 37 degrees Celsius for 30 minutes. After re-centrifugation, the cells are suspended in 0.5 ml DAPI solution and incubated for 15 min at 20 degrees Celsius in the dark. Thereafter, the cells are stored dark for a maximum of four hours in an ice bath, followed by the FACS analysis.
The adherent cells (A375 and BxPC-3 cells and MDA-MB-231, respectively) are seeded 24 hours before induction in 6-well plates in culture medium. For this, the cells are washed with PBS, then incubated with trypsin/EDTA solution at 37 degrees Celsius and suspended in culture medium. The 6-well plates are loaded with 1×10^5 cells/cm^2 in culture medium and the cells incubated for 24 hours until induction with the peptides in the incubator. For induction, the peptides are diluted in fresh culture medium. As control solutions, culture medium without peptide (DMSO-containing) in culture medium or etoposide solution is added. The cells are washed with PBS. Thereafter the peptide solution in culture medium is added to the cells. After incubation in the incubator (37° C., 5% CO2) between 1.5 and 24 hours, the cell supernatant is transferred to 15 ml centrifuge tubes, the cells are washed with 0.75 ml PBS and then with 0.5 ml versene solution. Both washings are combined with the cell supernatant. The cells are then added with 0.5 ml of trypsin/EDTA solution and incubated at about 37° C. for at most 10 minutes until the cells detached. The cell suspension is combined with cell supernatant and washings and centrifuged at about 130 g for about 10 minutes. After removing the supernatant, the cells are suspended in 400 μl of cell culture medium (without serum) and mixed with 1.2 ml of 80% ethanol/20% PBS (v/v) and incubated for 1 to 7 days at −20° C. For analysis, the cells are centrifuged at 130 g for 10 min, suspended in 2 ml PBS, and centrifuged again for 5 min. The cells are suspended in 700 μl PI buffer and incubated for 10 min at 37° C. in the dark. Subsequently, the cells are stored dark for a maximum of four hours in an ice bath, then the FACS analysis is performed. […]

A375 melanoma cells = test: subG1 cell cycle FACS apoptosis assay, A375 melanoma cells; format: cell-based, human; conditions: A375, Protocol A
Method: as §1
The adherent cells (A375 and BxPC-3 cells and MDA-MB-231, respectively) are seeded 24 hours before induction in 6-well plates in culture medium. For this, the cells are washed with PBS, then incubated with trypsin/EDTA solution at 37 degrees Celsius and suspended in culture medium. The 6-well plates are loaded with 1×10^5 cells/cm^2 in culture medium and the cells incubated for 24 hours until induction with the peptides in the incubator. For induction, the peptides are diluted in fresh culture medium. As control solutions, culture medium without peptide (DMSO-containing) in culture medium or etoposide solution is added. The cells are washed with PBS. Thereafter the peptide solution in culture medium is added to the cells. After incubation in the incubator (37° C., 5% CO2) between 1.5 and 24 hours, the cell supernatant is transferred to 15 ml centrifuge tubes, the cells are washed with 0.75 ml PBS and then with 0.5 ml versene solution. Both washings are combined with the cell supernatant. The cells are then added with 0.5 ml of trypsin/EDTA solution and incubated at about 37° C. for at most 10 minutes until the cells detached. The cell suspension is combined with cell supernatant and washings and centrifuged at about 130 g for about 10 minutes. After removing the supernatant, the cells are suspended in 400 μl of cell culture medium (without serum) and mixed with 1.2 ml of 80% ethanol/20% PBS (v/v) and incubated for 1 to 7 days at −20° C. For analysis, the cells are centrifuged at 130 g for 10 min, suspended in 2 ml PBS, and centrifuged again for 5 min. The cells are suspended in 700 μl PI buffer and incubated for 10 min at 37° C. in the dark. Subsequently, the cells are stored dark for a maximum of four hours in an ice bath, then the FACS analysis is performed.
The proportion of cells which have died was determined by two methods, both rely on the analysis of cells by flow cytometry, often called FACS analysis. […]

Substance | apoptosis efficiency (subG1), comparison in words ([1]; 50 μM) | apoptosis efficiency (subG1), comparison in words ([1]; 100 μM) | apoptosis efficiency (subG1), comparison in words (A375 melanoma cells; 200 μM, about 24 hours, FIG. 4) | apoptosis efficiency (subG1), comparison in words ([1]; 200 μM) | apoptosis level (subG1), comparison in words (A375 melanoma cells; 100 μM, FIG. 6) | apoptosis efficiency (subG1), comparison in words (A375 melanoma cells; 200 μM, incubation 24 h, FIG. 6) | apoptosis efficiency (subG1) in view of Peptide SEQ C1 ([1]; any concentration (50, 100, 200 μM)) | apoptosis efficiency (subG1) in view of Peptide SEQ C1 (A375 melanoma cells; 100 μM, about 24 hours, FIG. 4) | apoptosis level (subG1) (A375 melanoma cells; 200 μM and above, incubation about 3 hours, FIG. 6) | apoptosis efficiency (subG1) in view of Peptide SEQ C1 (A375 melanoma cells; 200 μM, about 24 hours, FIG. 4) | apoptosis efficiency (subG1), comparison in words (A375 melanoma cells; 200 μM, incubation 1.5 h, 3 h and 6 h, FIG. 6) | apoptosis efficiency (subG1), comparison in words (A375 melanoma cells; 300 μM, all incubation times (1.5, 3, 6, 24 h), FIG. 6) | apoptosis efficiency (subG1), comparison in words (A375 melanoma cells; any concentration (50, 100, 200 μM), about 24 hours, FIG. 4)
k-s-q-t-v-k-k-w-m-v-v-y-f-r-k [SEQID No 29] | slight improvement over peptides SEQID NO 27 and SEQID NO 37 | higher efficiency at 100 μM in view of Peptides SEQID NO 27, SEQID NO 37 and SEQID NO 36 | higher efficiency at 200 μM in view of Peptide SEQID No 37 | – | – | – | – | – | – | – | – | – | –
s-q-t-v-q-k-w-m-v-v-y-f-r-k [SEQID No 37] | – | – | – | clear improvement over peptides SEQID NO 27 and SEQID NO 29 | slightly improved apoptosis level in view of peptide SEQID NO 27 | best results | – | – | – | – | – | – | –
k-s-q-t-v-q-k-w-m-v-v-y-f-r-k [SEQID No 36] | slight improvement over peptides SEQID NO 27 and SEQID NO 37 | – | – | clear improvement over peptides SEQID NO 27 and SEQID NO 29 | slightly improved apoptosis level in view of peptide SEQID NO 27 | – | at least fourfold | at least fivefold | high apoptosis level | at least tenfold | improvement over Peptides SEQID NO 37 and SEQID NO 27 | improvement with regard to all incubation times over Peptides SEQID NO 37 and SEQID NO 27 | clear improvement over Peptides SEQID NO 37 and SEQID NO 29 at any concentration
